Reference: patent publication US10550143B2, “C,O-spiro aryl glycoside compounds, preparation therefor and use thereof” (SHANGHAI INSTITUTE OF MATERIA MEDICA, CHINESE ACADEMY OF …, priority 2015, dated 2020)

Experiments:
[1] = target: T1, human sodium-glucose cotransporter 2 (SGLT2) (Homo sapiens, UniProt P31639); assay: In vitro SGLT2 inhibition, methyl-α-D-[U-14C]glucopyranoside uptake in NIH3T3-hSGLT2 cells; type: cell-based; conditions: for Selectivity: IC50 SGLT1/IC50 SGLT2; for inhibition at 0.01 µM: SGLT2, 10 nM, read-out: % Inhibition rate ± SD 10 nM; for inhibition at 0.1 µM: SGLT2, 100 nM, read-out: % Inhibition rate ± SD 100 nM; for IC50: read-out: IC50 ± SD SGLT2
T1 construct: expressed in transfected cells; host or cells: NIH3T3 (mouse fibroblast) cells expressing hSGLT2
T1 sequence (P31639 1-672): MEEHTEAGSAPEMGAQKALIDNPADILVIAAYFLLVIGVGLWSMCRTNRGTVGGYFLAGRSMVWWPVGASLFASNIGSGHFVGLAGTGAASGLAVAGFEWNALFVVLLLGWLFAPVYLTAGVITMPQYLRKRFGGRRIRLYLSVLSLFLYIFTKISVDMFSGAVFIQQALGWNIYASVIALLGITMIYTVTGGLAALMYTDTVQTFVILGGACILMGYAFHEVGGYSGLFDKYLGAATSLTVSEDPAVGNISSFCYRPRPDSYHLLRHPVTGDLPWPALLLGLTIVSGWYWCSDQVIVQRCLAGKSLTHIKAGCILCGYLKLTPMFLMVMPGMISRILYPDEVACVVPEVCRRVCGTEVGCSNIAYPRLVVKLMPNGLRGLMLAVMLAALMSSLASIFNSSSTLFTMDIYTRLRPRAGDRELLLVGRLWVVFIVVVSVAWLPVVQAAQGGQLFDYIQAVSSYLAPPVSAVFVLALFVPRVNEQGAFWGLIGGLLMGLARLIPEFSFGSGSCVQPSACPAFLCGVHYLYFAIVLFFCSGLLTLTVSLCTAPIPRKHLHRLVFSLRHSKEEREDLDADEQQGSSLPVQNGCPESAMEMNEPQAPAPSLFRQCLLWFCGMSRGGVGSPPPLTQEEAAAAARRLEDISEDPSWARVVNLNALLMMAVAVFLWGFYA
Method: Inhibition of the compounds of formula I against human sodium-glucose cotransporter 2 (SGLT2) was determined experimentally and the experimental procedures were carried out as reference^1.
Methyl-α-D-[U-^14C] glucopyranoside (Perkin Elmer) Dimethylsulfoxide (Genebase, Prod No: 0231)
(1) Primary screening of hSGLT2 are conducted with two concentrations, 100 nM and 10 nM;
SGLT2 transports D-glucose at 1:1 sodium-glucose ratio, glucose is replaced by the non-metabolic and isotope labeled methyl-aD-[U-^14C] glucopyranoside and methyl-aD-glucopyranoside, and the amount of isotope transferred into the cells was determined.
1) 0.2% gelatin in a 96-well plate was put in a 37° C. incubator for further use;
2) NIH3T3-hSGLT2 cells were injected into 96-well plates, 40000/well, and 100 μL culture medium per well:
3) the fluid was changed in the next day, and sodium butyrate was added into medium at a final concentration of 2 mM;
4) wash the cells with 100 μL of KRH—Na^+ for 3 times and incubate cells with 50 μL for 30 minutes. Cells were changed to 50 μL of compound in KRH—Na^+, uptake buffer (KRH—Na^+ and methyl-α-D-[U-^14C]glucopyranoside and ⅙ mM methyl-α-D-glucopyranoside at 10 μL per well) was added; KRH-acetylcholine solution was used as background control instead of KRH-Na^+
5) washed with 100 μL PBS for 3 times, dried, 50 μL lysate and 150 μL scintillation fluid were added, the membrane was covered and flattened, shaken on a shaker to mix thoroughly, centrifuged at 1500 rpm at 4° C. for 3 min, taken out and read;
6) the results were analyses.
The inhibition rate (% Inhibiton) of each sample at each concentration was calculated by dividing the value of the compound well value minus the background value by the value of the DMSO control well value minus the background value.
IC50 is calculated as follows: […]
The y value is the activity or inhibition percent, the x value is the concentration of the corresponding compound, top (the maximum y value of the curve), bottom (the minimum y value of the curve).

[2] = target: T2, hSGLT1 (Homo sapiens, UniProt P13866); assay: In vitro SGLT1 inhibition (hSGLT1 IC50 test); type: cell-based; conditions: read-out: IC50 ± SD SGLT1
T2 sequence (P13866 1-664): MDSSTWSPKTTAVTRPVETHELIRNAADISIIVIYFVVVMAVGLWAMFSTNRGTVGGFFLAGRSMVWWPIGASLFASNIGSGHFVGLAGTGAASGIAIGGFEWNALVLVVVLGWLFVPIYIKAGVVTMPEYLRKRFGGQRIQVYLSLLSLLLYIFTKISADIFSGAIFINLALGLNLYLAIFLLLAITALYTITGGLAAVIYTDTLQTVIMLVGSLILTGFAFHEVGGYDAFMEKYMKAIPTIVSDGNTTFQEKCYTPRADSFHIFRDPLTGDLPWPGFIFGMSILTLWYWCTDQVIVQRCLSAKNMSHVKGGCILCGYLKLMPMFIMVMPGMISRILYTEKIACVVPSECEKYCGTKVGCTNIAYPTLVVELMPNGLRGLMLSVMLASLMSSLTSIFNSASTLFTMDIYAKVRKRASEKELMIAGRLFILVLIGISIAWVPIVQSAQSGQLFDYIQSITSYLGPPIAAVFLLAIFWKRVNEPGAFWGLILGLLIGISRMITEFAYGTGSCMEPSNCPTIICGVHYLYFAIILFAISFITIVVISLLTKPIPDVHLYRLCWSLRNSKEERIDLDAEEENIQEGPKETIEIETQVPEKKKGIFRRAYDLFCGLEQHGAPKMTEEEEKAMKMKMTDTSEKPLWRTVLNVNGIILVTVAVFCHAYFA

Row | Structure (SMILES) | Selectivity [1] | inhibition at 0.01 µM [1] [%] | inhibition at 0.1 µM [1] [%] | IC50 [1] [µM] | IC50 [2] [µM]
1 | CCc1ccc(Cc2ccc3c(c2)[C@]2(OC3)O[C@H](C)[C@@H](O)[C@H](O)[C@H]2O)cc1 [Example A2, (1S,3′R,4′S,5′S,6′R)-6′-methyl-6-(4-ethylbenzyl)-3′,4′,5′,6′-tetrahydro-3H-spiro[isobenzofuran-1,2′-pyran]-3′,4′,5′-triol] | 351 | 51.4 ± 2.1 | 62.6 ± 2 | 0.0635 ± 0.0071 | 22.3 ± 4.26
2 | CCc1ccc(Cc2cc3c(cc2Cl)CO[C@]32O[C@H](C)[C@@H](O)[C@H](O)[C@H]2O)cc1 [Example A22, (1S,3′R,4′S,5′S,6′R)-6′-methyl-6-(4-ethylbenzyl)-5-chloro-3′,4′,5′,6′-tetrahydro-3H-spiro[isobenzofuran-1,2′-pyran]-3′,4′,5′-triol] | 13 | 25 ± 3.1 | 79.8 ± 8.5 | 0.0297 ± 0.0184 | 0.41 ± 0.05
3 | CCOc1ccc(Cc2cc3c(cc2Cl)CO[C@]32O[C@H](C)[C@@H](O)[C@H](O)[C@H]2O)cc1 [Example A26, (1S,3′R,4′S,5′S,6′R)-6′-methyl-6-(4-ethoxybenzyl)-5-chloro-3′,4′,5′,6′-tetrahydro-3H-spiro[isobenzofuran-1,2′-pyran]-3′,4′,5′-triol] | 58 | 51.5 ± 10.7 | 90.5 ± 4.1 | 0.0157 ± 0.0021 | 0.92 ± 0.09
4 | C[C@H]1O[C@]2(OCc3cc(Cl)c(Cc4cc5ccccc5o4)cc32)[C@H](O)[C@@H](O)[C@@H]1O [Example A36, (1S,3′R,4′S,5′S,6′R)-6′-methyl-6-(benzo[b]furan-2-methyl)-5-chloro-3′,4′,5′,6′-tetrahydro-3H-spiro[isobenzofuran-1,2′-pyran]-3′,4′,5′-triol] | 166 | 24.4 ± 8.8 | 103 ± 3.7 | 0.0324 ± 0.0082 | 5.4 ± 0.66

Second part, the compound after the results:

Row | Selectivity [1] | inhibition at 0.01 µM [1] [%] | inhibition at 0.1 µM [1] [%] | IC50 [1] [µM] | IC50 [2] [µM] | Structure (SMILES)
5 | 81 | 22.4 ± 7.5 | 95.7 ± 2 | 0.024 ± 0.0024 | 1.95 ± 0.13 | C[C@H]1O[C@]2(OCc3cc(Cl)c(Cc4cc5ccccc5s4)cc32)[C@H](O)[C@@H](O)[C@@H]1O [Example A35, (1S,3′R,4′S,5′S,6′R)-6′-methyl-6-(benzo[b]thiophene-2-methyl)-5-chloro-3′,4′,5′,6′-tetrahydro-3H-spiro[isobenzofuran-1,2′-pyran]-3′,4′,5′-triol]
6 | 83 | 18.3 ± 2.2 | 71.4 ± 2.8 | 0.0435 ± 0.0113 | 3.6 ± 0.26 | COCCc1ccc(Cc2cc3c(cc2Cl)CO[C@]32O[C@H](C)[C@@H](O)[C@H](O)[C@H]2O)s1 [Example A114, (1S,3′R,4′S,5′S,6′R)-5-chloro-6-((5-(2-methoxyethyl)thiophene-2-yl)methyl)-6′-methyl-3-3′,4′,5′,6′-tetrahydro-3H-spiro[isobenzofuran-1,2′-pyran]-3′,4′,5′-triol]
7 | 166 | 22.1 ± 3 | 91.8 ± 3.5 | 0.0434 ± 0.0129 | 7.2 ± 0.6 | CC(O)c1ccc(Cc2cc3c(cc2Cl)CO[C@]32O[C@H](C)[C@@H](O)[C@H](O)[C@H]2O)s1 (stereo partly drawn) [Example A118, (1S,3′R,4′S,5′S,6′R)-5-chloro-6-((5-(1-hydroxyethyl)thiophene-2-yl)methyl)-6′-methyl-3′,4′,5′,6′-tetrahydro-3H-spiro[isobenzofuran-1,2′-pyran]-3′,4′,5′-triol]
8 | 167 | 22 ± 3.1 | 80 ± 2.7 | 0.0036 ± 0.0008 | 0.6 ± 0.08 | C[C@H]1O[C@]2(OCc3cc(Cl)c(Cc4ccc(CCO)s4)cc32)[C@H](O)[C@@H](O)[C@@H]1O [Example A119, (1S,3′R,4′S,5′S,6′R)-5-chloro-6-((5-(2-hydroxyethyl)thiophene-2-yl)methyl)-6′-methyl-3′,4′,5′,6′-tetrahydro-3H-spiro[isobenzofuran-1,2′-pyran]-3′,4′,5′-triol]
